Assay results published in US20140171424A1, “HYPERTENSION AND HYPERURICEMIA” (ARDEA BIOSCIENCES, INC., priority 2011, published 2014).
Where “and” joins values, the source holds several entries; their conditions need not be identical. Equal values may be shown once. Read-outs that look alike come from different tables or passages of the source. Each block holds one compound with its values, some of them ahead of it.

Columns and labels:
[1] = biological target: T1, OAT4 (Homo sapiens, UniProt Q9NSA0); assay: OAT4 urate (14C-uric acid) transport in transfected HEK293/293T cells; type: cell-based; parameters: expressed in transfected cells; settings: for OAT4 transport activity of 14C-uric acid: UA 100 μM, drug 100 μM, 5 min incubation, OAT4-expressing HEK293 cells
T1 sequence (Q9NSA0 1-550): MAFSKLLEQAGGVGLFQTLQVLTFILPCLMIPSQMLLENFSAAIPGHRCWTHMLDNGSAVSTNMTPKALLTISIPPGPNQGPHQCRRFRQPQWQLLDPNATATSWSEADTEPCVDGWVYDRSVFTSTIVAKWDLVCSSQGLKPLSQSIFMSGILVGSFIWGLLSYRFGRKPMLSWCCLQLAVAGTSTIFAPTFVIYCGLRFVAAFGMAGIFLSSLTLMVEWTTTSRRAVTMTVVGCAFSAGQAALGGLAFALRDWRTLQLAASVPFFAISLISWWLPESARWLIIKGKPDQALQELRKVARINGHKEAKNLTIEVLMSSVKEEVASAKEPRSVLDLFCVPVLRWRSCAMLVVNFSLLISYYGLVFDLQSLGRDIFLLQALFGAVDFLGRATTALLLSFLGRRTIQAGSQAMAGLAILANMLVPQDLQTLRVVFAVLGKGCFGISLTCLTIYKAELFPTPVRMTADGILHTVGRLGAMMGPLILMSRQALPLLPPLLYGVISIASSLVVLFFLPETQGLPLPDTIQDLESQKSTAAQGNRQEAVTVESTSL
Protocol: (§1) For cultured cells, HEK293 cells stably expressing the transporters were produced through transfection of DNA constructs carrying the transporters, antibiotic selection, and clonal selection of clones with high transporter activity. Alternatively, cells transiently expressing the transporters were produced by reverse transfection of HEK293T cells. Transfectants were plated at high density onto poly-L-lysine coated multiwell plates and assayed 1-2 days later.

[2] = biological target: T1, OAT4; settings: read-out: IC50, inhibition of OAT4 uptake of 3H-estrone sulfate; cited from earlier work
[3] = biological target: T1, OAT4; assay: 3H-Estrone sulphate (ES) transport in 293T cells stably expressing OAT4; type: cell-based; parameters: expressed in transfected cells; settings: 1 mM HCTZ, varying concentrations of Lesinurad
Protocol: as §1, with “later. Results were similar for stable and transient expressing cells.” for “later.”

[4] = biological target: T1, OAT4; settings: cited from earlier work; for effect on OAT4 uric acid transport activity: J. Am. Soc. Nephrol. 18:430 and 18:3101, 2007
[5] = biological target: T1, OAT4; assay: OAT4 transport of 6-carboxyfluorescein (CF) in transfected HEK293/HEK293T cells; type: cell-based; parameters: expressed in transfected cells; settings: for OAT4 transport activity of 6-carboxyfluorescein: CF 5 μM, drug 100 μM, 5 min incubation, OAT4-expressing HEK293 cells
Protocol: as §1, with “later. Results were similar for stable and transient expressing cells.” for “later.”

[6] = Clinical phase 2 study in gout patients not adequately responding to allopurinol (sUA <6 mg/dL responders); type: in vivo, human; settings: Week 4; Lesinurad added to allopurinol regimen; patients receiving thiazide diuretic
Protocol: FIG. 10A represents a schematic of a clinical phase 2 study design. The study was a 4-week, double-blind, placebo-controlled clinical trial in 208 gout patients who were not adequately responding to allopurinol with serum urate (sUA)≧6 mg/dL while receiving a stable dose of allopurinol for at least 6 weeks. One of three doses of Lesinurad or matching placebo was added to the patients allopurinol regimen. The primary endpoint of the study was mean reduction in sUA at Week 4, with the key secondary endpoint the proportion of subjects with sUA <6.0 mg/dL at Week 4. A small number of patients in this trial received a thiazide diuretic during the treatment period; their response rates were compared to those patients not receiving concomitant thiazide diuretics and the results presented in FIG. 10B.

[7] = biological target: T2, URAT1 (Homo sapiens, UniProt Q96S37); assay: URAT1 UA transport in 293T cells; type: cell-based; settings: 293T cells expressing URAT1 and/or OAT4; varying concentrations
T2 construct: expressed in transfected cells; host or cells: 293T cells
T2 sequence (Q96S37 1-553): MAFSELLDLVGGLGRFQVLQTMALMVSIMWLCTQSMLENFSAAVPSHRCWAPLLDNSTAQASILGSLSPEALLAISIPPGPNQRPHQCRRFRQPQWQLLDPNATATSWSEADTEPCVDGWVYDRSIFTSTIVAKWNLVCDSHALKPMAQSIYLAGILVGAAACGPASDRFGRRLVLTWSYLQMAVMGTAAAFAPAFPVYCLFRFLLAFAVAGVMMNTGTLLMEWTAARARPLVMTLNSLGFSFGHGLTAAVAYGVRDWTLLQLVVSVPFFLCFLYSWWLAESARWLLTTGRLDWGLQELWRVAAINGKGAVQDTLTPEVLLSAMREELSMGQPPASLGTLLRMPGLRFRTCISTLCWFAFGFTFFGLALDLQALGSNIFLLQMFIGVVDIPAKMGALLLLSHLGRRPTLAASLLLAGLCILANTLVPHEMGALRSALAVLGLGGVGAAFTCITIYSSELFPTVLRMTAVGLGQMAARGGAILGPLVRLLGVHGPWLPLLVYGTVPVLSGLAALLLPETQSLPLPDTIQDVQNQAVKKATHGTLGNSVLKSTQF
Protocol: as §1

- IC50 ([1]; varying amounts of drug, read-out: OAT4 IC50 (OAT4 urate transport, cpm)): 10 µM
Compound: CCc1oc2ccccc2c1C(=O)c1cc(Br)c(O)c(Br)c1 [Benzbromarone]

Compound: CCc1oc2cc(O)ccc2c1C(=O)c1cc(Br)c(O)c(Br)c1 [6-hydroxybenzbromarone]
- IC50 [2]: 3.2 µM

Compound: NS(=O)(=O)c1cc2c(cc1Cl)NCNS2(=O)=O [Hydrochlorothiazide, 6-Chloro-1,1-dioxo-3,4-dihydro-2H-1,2,4-benzothiadiazine-7-sulfonamide]
- effect of HCTZ on Lesinurad-mediated inhibition of OAT4 ES transport [3]: no effect on Lesinurad-mediated inhibition of OAT4 transporter activity
- effect on OAT4 uric acid transport activity [4]: increase OAT4 uric acid transport activity
- increase of OAT4-mediated uric acid uptake ([4]; one study): 2.6 fold

- OAT4 transport activity of 14C-uric acid [1]: do not inhibit OAT4 transport activity
- OAT4 transport activity of 6-carboxyfluorescein [5]: do not inhibit OAT4 transport activity
Compound: O=c1[nH]c(=O)c2c[nH]nc2[nH]1 [oxypurinol]

Compound: Cc1cccc(Nc2ccncc2S(=O)(=O)NC(=O)NC(C)C)c1 [torasemide]
- effect on OAT4 uric acid transport activity [4]: increase OAT4 uric acid transport activity

- EC50 ([5]; HEK293T cells transiently transfected with OAT4, CF substrate, 0, 0.5, 1, 2 nM cold uric acid, read-out: EC50 of cold uric acid as competitive substrate for OAT4 of CF): 900 µM and ~900 µM
Compound: O=c1[nH]c(=O)c2[nH]c(=O)[nH]c2[nH]1 [uric acid]

Compound: O=C(O)CSc1nnc(Br)n1-c1ccc(C2CC2)c2ccccc12 [Lesinurad, 2-(5-bromo-4-(4-cyclopropylnaphthalen-l-yl)-4H-1,2,4-triazol-3-ylthio)acetic acid]
- proportion of patients with sUA below 6 mg/dL, patients taking diuretics vs not [6]: patients receiving diuretics had responded well to Lesinurad
- percent inhibition of UA transport, URAT1 [7]: inhibits URAT1 and OAT4 with similar potency

- OAT4 transport activity of 14C-uric acid [1]: do not inhibit OAT4 transport activity
- OAT4 transport activity of 6-carboxyfluorescein [5]: do not inhibit OAT4 transport activity
Compound: Oc1ncnc2[nH]ncc12 [allopurinol]
